Assay results reported in US7332279B2 (Glycozym APS, priority 1999, dated 2008).

Experiments:
[1] = test system: porcine tracheal β3Gal-transferase activity; details: acceptor substrate; read-out: apparent Km, porcine β3Gal-transferase activity; cited from earlier work
β3Gal-T1 = biological target: T1, β3Gal-T1 (Homo sapiens, UniProt Q9Y5Z6); test: Activity of full coding construct of β3Gal-T1 expressed in Sf9 cells (Triton CF54 homogenates or media); format: biochemical; details: 60 hrs post-infection, acceptor 20 mM
T1 construct: Full length enzymes were assayed with 1% Triton CF54 homogenates of washed cells; made in house; host or cells: Sf9 cells, baculovirus
T1 sequence (Q9Y5Z6 1-326): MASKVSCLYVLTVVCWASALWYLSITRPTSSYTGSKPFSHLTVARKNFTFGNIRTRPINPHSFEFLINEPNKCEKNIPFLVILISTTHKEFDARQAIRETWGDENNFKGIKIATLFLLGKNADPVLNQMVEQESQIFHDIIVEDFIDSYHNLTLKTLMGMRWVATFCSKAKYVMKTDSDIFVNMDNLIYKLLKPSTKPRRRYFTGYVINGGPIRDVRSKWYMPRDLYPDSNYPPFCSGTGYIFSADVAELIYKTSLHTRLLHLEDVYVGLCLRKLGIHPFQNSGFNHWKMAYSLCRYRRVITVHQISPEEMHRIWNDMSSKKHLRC

β3Gal-T5 = biological target: T2, β3Gal-T5 (Homo sapiens, UniProt Q9Y2C3, M85T); test: Activity of full coding construct of β3Gal-T5 expressed in Sf9 cells (Triton CF54 homogenates or media); format: biochemical; details: 60 hrs post-infection, acceptor 20 mM
T2 construct: Full length enzymes were assayed with 1% Triton CF54 homogenates of washed cells; made in house; host or cells: Sf9 cells, baculovirus (pVL1193)
T2 sequence (Q9Y2C3 1-310 M85T): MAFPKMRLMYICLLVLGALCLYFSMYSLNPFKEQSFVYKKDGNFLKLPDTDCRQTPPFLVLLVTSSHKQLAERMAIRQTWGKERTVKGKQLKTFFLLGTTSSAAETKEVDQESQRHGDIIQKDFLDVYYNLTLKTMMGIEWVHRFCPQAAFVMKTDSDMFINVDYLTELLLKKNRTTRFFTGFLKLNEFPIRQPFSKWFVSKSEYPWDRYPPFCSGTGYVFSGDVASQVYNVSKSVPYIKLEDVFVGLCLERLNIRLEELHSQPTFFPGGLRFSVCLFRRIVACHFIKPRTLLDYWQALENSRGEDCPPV
Text: PCR product was cloned into the BamHI site of pAcGP67B (Pharmingen). […] This PCR product was cloned into the BamHI site of pVL1193 (Pharmingen). Both soluble and full length constructs were fully sequenced to confirm fidelity. Plasmids […]5-full were co-transfected with Baculo-GoldTM DNA (Pharmingen) as described previously (Bennett, […]. and Clausen, H. cDNA cloning and expression of a novel human UDP-N-acetyl-alpha-D-galactosamine. Polypeptide N-acetyl-galactosaminyl-transferase, GalNAc-T3. J. Biol. Chem. 271:17006-17012, 1996). Recombinant Baculo-virus were obtained after two successive amplifications in Sf9 cells grown in serum-containing medium, and titers of virus were estimated by titration in 24-well plates with monitoring of enzyme activities. […] J. Biol. […] J. Biol. […] Polypeptide N-acetyl-galactosaminyl-transferase, GalNAc-T3. J. Biol. Chem. 271:17006-17012, 1996). For large scale expression amplified virus was used to infect High FiveTM cells grown in serum-free media (Invitrogen) in upright roller bottles shaking at 140 rpm and 27° C. The kinetic properties were determined with partially purified, secreted forms of the enzymes. […] Reaction products were quantified by Dowex-1 chromatography. […] The transfer of Gal was evaluated after acid precipitation by filtration through Whatman GF/C glass fibre filters. […]

| β3Gal-T1 full coding construct activity, Cells (β3Gal-T1; 1% Triton CF54 cell homogenate) | β3Gal-T1 full coding construct activity, Media (β3Gal-T1; media) | β3Gal-T5 full coding construct activity, Cells (β3Gal-T5; 1% Triton CF54 cell homogenate) | β3Gal-T5 full coding construct activity, Media (β3Gal-T5; media) | SMILES | Km [1] |
| --- | --- | --- | --- | --- | --- |
|  |  |  |  | CC(=O)NC1C(OC2C(O)C(CO)OC(Oc3ccc([N+](=O)[O-])cc3)C2NC(C)=O)OC(CO)C(O)C1O [β-D-GlcNAc-(1–3)-α-D-GalNAc-p-Nph] | 2400 µM |
| 7.2 nmol/min/mL | 0.2 nmol/min/mL | 1.5 nmol/min/mL | 0.1 nmol/min/mL | CC(=O)N[C@H]1[C@H](OCc2ccccc2)O[C@H](CO)[C@@H](O)[C@@H]1O [β-D-GlcNAc-Bzl] |  |
